target: human σ1 receptor (Homo sapiens, UniProt Q99720); assay: biochemical; assay type: binding; design: μ and σ1 dual (binding to the σ1 receptor and the μ-opioid receptor expressed as Ki): key to the marks not given beside the values
Sequence (Q99720 whole entry): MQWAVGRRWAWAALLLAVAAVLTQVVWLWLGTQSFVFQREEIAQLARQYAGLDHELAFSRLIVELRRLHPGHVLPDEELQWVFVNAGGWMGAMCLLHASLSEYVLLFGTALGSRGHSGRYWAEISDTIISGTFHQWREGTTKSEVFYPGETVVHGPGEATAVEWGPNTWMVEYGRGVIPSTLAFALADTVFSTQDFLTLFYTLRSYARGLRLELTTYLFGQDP

| SMILES | Ki [nM] | μ and σ1 dual (binding to the σ1 receptor and the μ-opioid receptor expressed as Ki) |
| --- | --- | --- |
| CCC(=O)N(CC1(N2CCN(Cc3ccc(C(F)(F)F)nc3)CC2)CCOCC1)c1ccccc1 [Example 103, N-phenyl-N-((4-(4-((6-(trifluoromethyl)pyridin-3-yl)methyl)piperazin-1-yl)tetrahydro-2H-pyran-4-yl)methyl)propionamide] | > 500 | – |
| CCC(=O)N(CC1(N2CCN(Cc3ccccc3F)CC2)CCOCC1)c1ccccc1 [Example 104, N-((4-(4-(2-fluorobenzyl)piperazin-1-yl)tetrahydro-2H-pyran-4-yl)methyl)-N-phenylpropionamide] | < 500 | – |
| CCC(=O)N(CC1(N2CCN(Cc3ccc(F)cc3)CC2)CCOCC1)c1ccccc1 [Example 105, N-((4-(4-(4-fluorobenzyl)piperazin-1-yl)tetrahydro-2H-pyran-4-yl)methyl)-N-phenylpropionamide] | < 100 | – |
| CCC(=O)N(CC1(N2CCN(Cc3ccncc3)CC2)CCOCC1)c1ccccc1 [Example 106, N-phenyl-N-((4-(4-(pyridin-4-ylmethyl)piperazin-1-yl)tetrahydro-2H-pyran-4-yl)methyl)propionamide] | – | ++ |
| CCC(=O)N(CC1(N2CCN(Cc3cncc(F)c3)CC2)CCOCC1)c1ccccc1 [Example 107, N-((4-(4-((5-fluoropyridin-3-yl)methyl)piperazin-1-yl)tetrahydro-2H-pyran-4-yl)methyl)-N-phenylpropionamide] | < 500 | – |
| CCC(=O)N(CC1(N2CCN(Cc3ccc(F)c(F)c3)CC2)CCOCC1)c1ccccc1 [Example 108, N-((4-(4-(3,4-difluorobenzyl)piperazin-1-yl)tetrahydro-2H-pyran-4-yl)methyl)-N-phenylpropionamide] | < 500 | – |
| CCC(=O)N(CC1(N2CCN(Cc3ccc(OC)nc3)CC2)CCOCC1)c1ccccc1 [Example 109, N-((4-(4-((6-methoxypyridin-3-yl)methyl)piperazin-1-yl)tetrahydro-2H-pyran-4-yl)methyl)-N-phenylpropionamide] | < 500 | – |
| CCC(=O)N(CC1(N2CCN(Cc3cccc(F)c3)CC2)CCOCC1)c1ccccn1 [Example 110, N-((4-(4-(3-fluorobenzyl)piperazin-1-yl)tetrahydro-2H-pyran-4-yl)methyl)-N-(pyridin-2-yl)propionamide] | < 500 | – |
| CCC(=O)N(CC1(N2CCN(Cc3ccc(F)cc3)CC2)CCOCC1)c1ccccn1 [Example 111, N-((4-(4-(4-fluorobenzyl)piperazin-1-yl)tetrahydro-2H-pyran-4-yl)methyl)-N-(pyridin-2-yl)propionamide] | < 500 | – |
| CCC(=O)N(CC1(N2CCN(C(C)COC)CC2)CCOCC1)c1cccc(C(F)(F)F)n1 (stereo not drawn) [Example 112, N-((4-(4-(1-methoxypropan-2-yl)piperazin-1-yl)tetrahydro-2H-pyran-4-yl)methyl)-N-(6-(trifluoromethyl)pyridin-2-yl)propionamide] | – | ++ |
| CCC(=O)N(CC1(N2CCN(Cc3ccc(C(F)(F)F)nc3)CC2)CC1)c1ccccc1 [Example 113, N-phenyl-N-((1-(4-((6-(trifluoromethyl)pyridin-3-yl)methyl)piperazin-1-yl)cyclopropyl)methyl)propionamide] | – | ++ |
| CCC(=O)N(CC1(N2CCN(Cc3ccccn3)CC2)CC1)c1ccccc1 [Example 114, N-phenyl-N-((1-(4-(pyridin-2-ylmethyl)piperazin-1-yl)cyclopropyl)methyl)propionamide] | < 500 | – |
| CCC(=O)N(CC1(N2CCN(Cc3ccc(NC(C)=O)cc3)CC2)CC1)c1ccccc1 [Example 115, N-((1-(4-(4-acetamidobenzyl)piperazin-1-yl)cyclopropyl)methyl)-N-phenylpropionamide] | – | ++ |
| CCC(=O)N(CC1(N2CCN(Cc3cccc(F)c3)CC2)CC1)c1ccccc1 [Example 116, N-((1-(4-(3-fluorobenzyl)piperazin-1-yl)cyclopropyl)methyl)-N-phenylpropionamide] | < 100 | – |
| CCC(=O)N(CC1(N2CCN(Cc3ccc(F)c(F)c3)CC2)CC1)c1ccccc1 [Example 117, N-((1-(4-(3,4-difluorobenzyl)piperazin-1-yl)cyclopropyl)methyl)-N-phenylpropionamide] | < 100 | – |
| CCC(=O)N(CC1(N2CCN(Cc3ccccc3F)CC2)CC1)c1ccccc1 [Example 118, N-((1-(4-(2-fluorobenzyl)piperazin-1-yl)cyclopropyl)methyl)-N-phenylpropionamide] | < 100 | – |
| CCC(=O)N(CC1(N2CCN(Cc3cccnc3)CC2)CC1)c1ccccc1 [Example 119, N-phenyl-N-((1-(4-(pyridin-3-ylmethyl)piperazin-1-yl)cyclopropyl)methyl)propionamide] | < 500 | – |
| CCC(=O)N(CC1(N2CCN(Cc3ncccc3F)CC2)CC1)c1ccccc1 [Example 120, N-((1-(4-((3-fluoropyridin-2-yl)methyl)piperazin-1-yl)cyclopropyl)methyl)-N-phenylpropionamide] | > 500 | – |

| SMILES | Ki [nM] | μ and σ1 dual (binding to the σ1 receptor and the μ-opioid receptor expressed as Ki) |
| --- | --- | --- |
| CCC(=O)N(CC1(N2CCN(Cc3ccc(F)cn3)CC2)CC1)c1ccccc1 [Example 121, N-((1-(4-((5-fluoropyridin-2-yl)methyl)piperazin-1-yl)cyclopropyl)methyl)-N-phenylpropionamide] | > 500 | – |
| CCC(=O)N(CC1(N2CCN(Cc3cncc(F)c3)CC2)CC1)c1ccccc1 [Example 122, N-((1-(4-((5-fluoropyridin-3-yl)methyl)piperazin-1-yl)cyclopropyl)methyl)-N-phenylpropionamide] | < 500 | – |
| CCC(=O)N(CC1(N2CCN(CC(C)C)CC2)CC1)c1cccc(C(F)(F)F)n1 [Example 123, N-((1-(4-isobutylpiperazin-1-yl)cyclopropyl)methyl)-N-(6-(trifluoromethyl)pyridin-2-yl)propionamide] | < 100 | – |
| CCC(=O)N(CC1(N2CCN(CCC(C)C)CC2)CC1)c1cccc(C(F)(F)F)n1 [Example 124, N-((1-(4-isopentylpiperazin-1-yl)cyclopropyl)methyl)-N-(6-(trifluoromethyl)pyridin-2-yl)propionamide] | < 100 | – |
| CCC(=O)N(CC1(N2CCN(Cc3ccc(C(=O)NC)cc3)CC2)CCOCC1)c1ccccc1 [Example 125, N-methyl-4-((4-(4-((N-phenylpropionamido)methyl)tetrahydro-2H-pyran-4-yl)piperazin-1-yl)methyl)benzamide] | – | ++ |
| CCC(=O)N(CC1(N2CCN(CC(=O)N3CCCCC3)CC2)CCOCC1)c1ccccc1 [Example 127, N-((4-(4-(2-oxo-2-(piperidin-1-yl)ethyl)piperazin-1-yl)tetrahydro-2H-pyran-4-yl)methyl)-N-phenylpropionamide] | > 500 | – |
| CCC(=O)N(CC1(N2CCN(Cc3ccc(C(=O)NC)cc3)CC2)CC1)c1ccccc1 [Example 131, N-methyl-4-((4-(1-((N-phenylpropionamido)methyl)cyclopropyl)piperazin-1-yl)methyl)benzamide] | – | ++ |
| CCC(=O)N(CC1(N2CCN(CC(=O)N3CCCCC3)CC2)CC1)c1ccccc1 [Example 132, N-((1-(4-(2-oxo-2-(piperidin-1-yl)ethyl)piperazin-1-yl)cyclopropyl)methyl)-N-phenylpropionamide] | – | ++ |
| CCC(=O)N(CC1(N2CCN(C(C)c3ccccc3)CC2)CCOCC1)c1ccccn1 (stereo not drawn) [Example 134, N-((4-(4-(1-phenylethyl)piperazin-1-yl)tetrahydro-2H-pyran-4-yl)methyl)-N-(pyridin-2-yl)propionamide] | – | ++ |
| CCC(=O)N(CC1(N2CCN(CC(C)C)CC2)CCOCC1)c1ccccc1 [Example 135, N-((4-(4-isobutylpiperazin-1-yl)tetrahydro-2H-pyran-4-yl)methyl)-N-phenylpropionamide] | < 500 | – |
| CCC(=O)N(CC1(N2CCN(CCC(C)C)CC2)CCOCC1)c1cccc(C(F)(F)F)n1 [Example 137, N-((4-(4-isopentylpiperazin-1-yl)tetrahydro-2H-pyran-4-yl)methyl)-N-(6-(trifluoromethyl)pyridin-2-yl)propionamide] | < 100 | – |
| CCC(=O)N(CC1(N2CCN(C(C)CC)CC2)CCOCC1)c1cccc(C(F)(F)F)n1 (stereo not drawn) [Example 139, N-((4-(4-sec-butylpiperazin-1-yl)tetrahydro-2H-pyran-4-yl)methyl)-N-(6-(trifluoromethyl)pyridin-2-yl)propionamide] | – | ++ |
| CCC(=O)N(CC1(N2CCN(CCOC(F)(F)F)CC2)CCOCC1)c1cccc(C(F)(F)F)n1 [Example 141, N-((4-(4-(2-(trifluoromethoxy)ethyl)piperazin-1-yl)tetrahydro-2H-pyran-4-yl)methyl)-N-(6-(trifluoromethyl)pyridin-2-yl)propionamide] | < 500 | – |
| CCC(=O)N(CC1(N2CCN(CCO)CC2)CCOCC1)c1cccc(C(F)(F)F)n1 [Example 148, N-((4-(4-(2-hydroxyethyl)piperazin-1-yl)tetrahydro-2H-pyran-4-yl)methyl)-N-(6-(trifluoromethyl)pyridin-2-yl)propionamide] | > 500 | – |
| CCOCCCN1CCN(C2(CN(C(=O)CC)c3cccc(C(F)(F)F)n3)CCOCC2)CC1 [Example 150, N-((4-(4-(3-ethoxypropyl)piperazin-1-yl)tetrahydro-2H-pyran-4-yl)methyl)-N-(6-(trifluoromethyl)pyridin-2-yl)propionamide] | < 500 | – |
| CCC(=O)N(CC1(N2CCN(CC(C)C)CC2)CCOCC1)c1ccccn1 [Example 151, N-((4-(4-isobutylpiperazin-1-yl)tetrahydro-2H-pyran-4-yl)methyl)-N-(pyridin-2-yl)propionamide] | > 500 | – |
| CCC(=O)N(CC1(N2CCN(CCOC(C)C)CC2)CCOCC1)c1ccccn1 [Example 152, N-((4-(4-(2-isopropoxyethyl)piperazin-1-yl)tetrahydro-2H-pyran-4-yl)methyl)-N-(pyridin-2-yl)propionamide] | > 500 | – |
| CCC(=O)N(CC1(N2CCN(CCC(C)C)CC2)CCOCC1)c1ccccn1 [Example 153, N-((4-(4-isopentylpiperazin-1-yl)tetrahydro-2H-pyran-4-yl)methyl)-N-(pyridin-2-yl)propionamide] | – | ++ |

From patent US10428051B2 (priority 2015, dated 2019)
